According to ChEMBL document CHEMBL1201862, “PubChem BioAssay data set” (2004):
Calls of active or inactive are those of the source.

What was measured:
[1] = target: Peroxisome proliferator-activated receptor gamma/Nuclear receptor coactivator 2 (Homo sapiens, UniProt P37231); format: functional;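 also: agonist potency for raising coactivator recruitment to the receptor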
[2] = target: Peroxisome proliferator-activated receptor gamma/Nuclear receptor coactivator 1 (Homo sapiens, UniProt P37231); format: functional;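 also: agonist potency as compounds enhance coactivator SRC-1 recruitment to PPARgamma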
[3] = target: Peroxisome proliferator-activated receptor gamma/Nuclear receptor coactivator 3 (Homo sapiens, UniProt P37231); format: functional;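 also: agonist potency for raising coactivator recruitment to the receptor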
Caspase-6 = target: T1, Caspase-6 (Homo sapiens, UniProt P55212); assay: inhibition of CASP6 peptide cleavage – biochemical, VEID-R110 fluorescence, cherry-pick, dose response (AID 720632)
T1 sequence (P55212 whole entry): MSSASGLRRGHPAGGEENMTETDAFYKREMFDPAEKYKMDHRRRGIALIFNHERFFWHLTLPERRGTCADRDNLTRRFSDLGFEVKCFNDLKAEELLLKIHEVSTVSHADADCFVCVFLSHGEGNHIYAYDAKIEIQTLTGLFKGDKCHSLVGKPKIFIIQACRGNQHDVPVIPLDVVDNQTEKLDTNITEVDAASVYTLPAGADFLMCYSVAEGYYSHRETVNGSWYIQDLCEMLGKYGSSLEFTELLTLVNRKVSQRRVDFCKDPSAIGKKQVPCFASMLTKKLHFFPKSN

[4] = viability loss in THP-1 monocytes – THP-1 cells, cytotoxicity control for Vif-APOBEC3G degradation inhibitor project, dose response (AID 1117359); format: functional; settings: THP-1
Vero = assay: viability of Vero cells under compound – cytotoxicity control for flavivirus capping enzyme inhibitors (AID 588742); format: functional; settings: Chlorocebus sabaeus
[5] = loss of viability in HepG2 cells – cell-based, CellTiter-Glo, cherry-picked, cytotoxicity control for Shn3 inhibitor project, dose response (AID 624134); format: functional
Mu-type opioid receptor = Mu-type opioid receptor (Homo sapiens, UniProt P35372); assay: HTS Image-Based Screen for Agonists of the MOR Receptor. [Related pubchem assays (depositor defined):AID1777, AID1785, AID1786, AID2133]; format: functional;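 also: imaging of beta-arrestin GFP recruitment into spots after receptor activation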
[6] = non-specific 3'UTR reporter inhibition in Clone20-Shn3RL – cell-based, Renilla luciferase, cherry-picked, counter-screen for Shn3 inhibitor project, dose response (AID 624133); format: functional
[7] = target: T2, Delta-type opioid receptor (Homo sapiens, UniProt P41143); assay: HTS Image-Based Screen for Antagonists of the DOR Receptor. [Related pubchem assays (depositor defined):AID1777, AID1785, AID1786, AID2133]; format: functional
[8] = target: T3, Microphthalmia-associated transcription factor (Homo sapiens, UniProt O75030); assay: reducers of TRPM1 reporter luminescence, concentration series – cell-based, SK-MEL-5, cherry-picked, set 3, MITF inhibitor project, dose response (AID 493073); format: functional;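 also: SK-MEL-5 melanoma cells with luciferase driven by the MITF target TRPM1 promoter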
T3 sequence (O75030 whole entry): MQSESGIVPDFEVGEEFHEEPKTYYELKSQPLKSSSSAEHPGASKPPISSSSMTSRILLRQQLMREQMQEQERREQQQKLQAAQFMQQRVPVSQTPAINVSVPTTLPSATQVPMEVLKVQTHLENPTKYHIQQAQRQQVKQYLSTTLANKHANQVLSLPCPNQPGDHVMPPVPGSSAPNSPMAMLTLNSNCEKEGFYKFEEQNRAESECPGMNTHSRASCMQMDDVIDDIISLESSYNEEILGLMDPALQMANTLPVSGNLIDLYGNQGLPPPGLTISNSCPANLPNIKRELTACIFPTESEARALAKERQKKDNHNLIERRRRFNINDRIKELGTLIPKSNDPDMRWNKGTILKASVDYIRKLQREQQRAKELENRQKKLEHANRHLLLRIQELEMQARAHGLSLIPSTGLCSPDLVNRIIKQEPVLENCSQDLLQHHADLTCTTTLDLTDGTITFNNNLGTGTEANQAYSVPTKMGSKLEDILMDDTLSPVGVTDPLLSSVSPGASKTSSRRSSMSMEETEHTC

Fatty acid synthase [9] = target: T4, Fatty acid synthase (Homo sapiens, UniProt P49327); assay: inhibition of human FAS-TE enzyme activity – biochemical, kinetic fluorescence intensity, dose response (AID 624326); format: functional;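 also: rate of fluorescence rise from hydrolysis of a fluorogenic O-methyl fluorescein ester substrate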
[10] = target: T5, Kappa-type opioid receptor (Homo sapiens, UniProt P41145); format: functional
[11] = viability of HCT116 lacking mutant beta-catenin – cell-based, human colon tumor, dose response (AID 1045); format: functional;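 also: HCT116 colon tumor cells with beta catenin knocked out; cells exposed to compound for 60 hours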
[12] = reduction of Shn3 3'UTR-driven luciferase in osteoblasts – cell-based, Clone20 osteoblasts, firefly luciferase, cherry-picked, dose response (AID 624132); format: functional;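 also: firefly luciferase luminescence from reporter carrying the Shn3 3'UTR in osteoblasts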
Beta-galactosidase = Beta-galactosidase (Escherichia coli, UniProt Q8VNN2); format: functional
[13] = viability of PTEN-deleted HCT116 cells – cell-based, HCT116 PTEN knockout, dose response (AID 1047); format: functional;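 also: HCT116 colon tumor cells with PTEN knocked out; cells exposed to compound for 60 hours before readout; potency for loss of cell viability measured by luminescence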
[14] = target: T2, Delta-type opioid receptor; assay: HTS Image-Based Screen for Agonists of the DOR Receptor. [Related pubchem assays (depositor defined):AID1777, AID1786, AID2133]; format: functional
[15] = target: T5, Kappa-type opioid receptor; format: functional; remark: listed apart in the source
Fatty acid synthase [16] = target: T4, Fatty acid synthase; assay: inhibition of human FAS-TE enzyme activity – biochemical, endpoint fluorescence intensity, uHTS hits, dose response (AID 624327); format: functional;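 also: fluorescence from hydrolysis of an O-methyl fluorescein acyl ester substrate by the enzyme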
[17] = fluconazole-exposed Candida albicans growth modulators – fluorescence, retest, confirmation (AID 2467); format: functional, cell-based
[18] = target: ATP-dependent molecular chaperone HSP82 (Candida albicans (strain WO-1) (Yeast), UniProt C4YTQ8); assay: steroid-induced GRE reporter decrease in yeast – S. cerevisiae, luminescence, Hsp90 inhibitor project, dose response (AID 2400); format: functional, cell-based;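 also: beta-galactosidase luminescence from glucocorticoid response element reporter as proxy for Hsp90 function; inhibitor potency where signal loss means Hsp90 inhibition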
[19] = target: T6, Serine/threonine-protein phosphatase (Candida dubliniensis (strain CD36 / CBS 7987 / NCPF 3949 / NRRLY-17841) (Yeast), UniProt B9W6M3); assay: blockers of CaCl2-induced CDRE-lacZ signaling – S. cerevisiae, luminescence, secondary, dose response (AID 2388); format: functional, cell-based;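 also: yeast reporter cells carrying a calcineurin-responsive lacZ construct stimulated with calcium chloride; luminescent beta-galactosidase reporter signal in whole cells rather than isolated phosphatase activity; potency for inhibition where a drop in reporter signal means calcineurin blockade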
T6 sequence (B9W6M3 whole entry): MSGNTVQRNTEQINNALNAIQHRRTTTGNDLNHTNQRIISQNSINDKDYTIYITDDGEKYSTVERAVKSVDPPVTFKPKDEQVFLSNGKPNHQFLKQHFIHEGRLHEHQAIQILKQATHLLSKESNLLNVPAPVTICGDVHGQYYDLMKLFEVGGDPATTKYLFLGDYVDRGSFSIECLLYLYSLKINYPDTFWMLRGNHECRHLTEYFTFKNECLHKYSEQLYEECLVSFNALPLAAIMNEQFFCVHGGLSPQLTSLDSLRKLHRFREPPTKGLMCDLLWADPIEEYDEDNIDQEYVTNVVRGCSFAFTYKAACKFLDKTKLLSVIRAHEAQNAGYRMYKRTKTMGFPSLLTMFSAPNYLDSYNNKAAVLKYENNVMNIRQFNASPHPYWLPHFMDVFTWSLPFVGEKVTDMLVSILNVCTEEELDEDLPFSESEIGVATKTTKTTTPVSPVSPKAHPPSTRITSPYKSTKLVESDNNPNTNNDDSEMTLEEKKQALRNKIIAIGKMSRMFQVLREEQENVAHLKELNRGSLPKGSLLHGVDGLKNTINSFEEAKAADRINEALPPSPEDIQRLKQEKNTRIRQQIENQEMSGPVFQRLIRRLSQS

[20] = NIH-3T3 fibroblast cytotoxicity, dose response, cytotoxicity control, cell-based, fluorescence, Alamar Blue, secondary assay (AID 2327); format: functional;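 also: NIH-3T3 mouse fibroblasts cultured with fluconazole at 8 µg/mL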
[21] = target: Dual specificity tyrosine-phosphorylation-regulated kinase 1A (Rattus norvegicus, UniProt Q63470); format: biochemical, Homo sapiens
HeLa = assay: viability loss in HeLa cells – cell-based, 24 h, cherry-picked samples, cytotoxicity control, dose response (AID 504726); format: functional; settings: Homo sapiens;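 also: potency for cytotoxicity as loss of luminescence signal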
cells = format: functional
[22] = THP-1 cell cytotoxicity, dose response, cytotoxicity control for non-replicating M. tuberculosis project (AID 489025); format: functional
[23] = Trypanosoma cruzi growth suppression in host cells – NIH3T3 host cells, beta-gal luminescence, confirmation (AID 2044); format: functional, cell-based;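 also: intracellular parasites grown in NIH/3T3 mouse fibroblasts as host cells; luminescent beta-galactosidase reporter signal from transgenic T. cruzi replicating inside host cells; inhibitors lower the luminescence signal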
[24] = NIH3T3 cell viability loss – ATP luminescence, mouse fibroblasts, counter-screen, dose response (AID 2010); format: functional, cell-based;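 also: cells exposed to compound for about 90 hours before reading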

Chain of ATP-dependent molecular chaperone HSP82 (C4YTQ8 whole entry): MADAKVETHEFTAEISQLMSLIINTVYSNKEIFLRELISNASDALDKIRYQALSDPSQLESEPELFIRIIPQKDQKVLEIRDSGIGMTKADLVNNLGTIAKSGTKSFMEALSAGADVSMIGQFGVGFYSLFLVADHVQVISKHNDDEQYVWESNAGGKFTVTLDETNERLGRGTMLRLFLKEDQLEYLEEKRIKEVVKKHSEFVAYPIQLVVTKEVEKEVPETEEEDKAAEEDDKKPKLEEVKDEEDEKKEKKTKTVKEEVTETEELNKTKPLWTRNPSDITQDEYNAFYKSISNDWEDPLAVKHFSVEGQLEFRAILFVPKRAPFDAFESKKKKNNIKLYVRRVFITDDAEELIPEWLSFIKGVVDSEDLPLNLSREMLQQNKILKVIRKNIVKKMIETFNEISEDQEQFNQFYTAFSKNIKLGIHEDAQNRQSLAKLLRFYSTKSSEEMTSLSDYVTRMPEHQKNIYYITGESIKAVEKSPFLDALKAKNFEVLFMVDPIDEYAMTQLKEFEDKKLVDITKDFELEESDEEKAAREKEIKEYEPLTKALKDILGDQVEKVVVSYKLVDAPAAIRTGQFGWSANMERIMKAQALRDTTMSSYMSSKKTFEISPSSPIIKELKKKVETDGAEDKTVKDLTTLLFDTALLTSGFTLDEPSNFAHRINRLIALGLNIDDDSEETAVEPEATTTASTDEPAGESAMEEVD
T5 sequence (P41145 whole entry): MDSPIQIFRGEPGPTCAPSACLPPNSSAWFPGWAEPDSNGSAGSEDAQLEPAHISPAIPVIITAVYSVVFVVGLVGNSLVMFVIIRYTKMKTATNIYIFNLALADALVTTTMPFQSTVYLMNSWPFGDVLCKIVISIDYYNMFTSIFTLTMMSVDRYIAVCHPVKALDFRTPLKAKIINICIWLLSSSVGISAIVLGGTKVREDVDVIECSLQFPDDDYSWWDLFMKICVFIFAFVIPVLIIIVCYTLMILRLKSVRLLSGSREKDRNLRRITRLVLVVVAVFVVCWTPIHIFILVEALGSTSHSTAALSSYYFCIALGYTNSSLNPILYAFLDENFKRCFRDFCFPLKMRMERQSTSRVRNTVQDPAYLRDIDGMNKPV
T4 sequence (P49327 whole entry): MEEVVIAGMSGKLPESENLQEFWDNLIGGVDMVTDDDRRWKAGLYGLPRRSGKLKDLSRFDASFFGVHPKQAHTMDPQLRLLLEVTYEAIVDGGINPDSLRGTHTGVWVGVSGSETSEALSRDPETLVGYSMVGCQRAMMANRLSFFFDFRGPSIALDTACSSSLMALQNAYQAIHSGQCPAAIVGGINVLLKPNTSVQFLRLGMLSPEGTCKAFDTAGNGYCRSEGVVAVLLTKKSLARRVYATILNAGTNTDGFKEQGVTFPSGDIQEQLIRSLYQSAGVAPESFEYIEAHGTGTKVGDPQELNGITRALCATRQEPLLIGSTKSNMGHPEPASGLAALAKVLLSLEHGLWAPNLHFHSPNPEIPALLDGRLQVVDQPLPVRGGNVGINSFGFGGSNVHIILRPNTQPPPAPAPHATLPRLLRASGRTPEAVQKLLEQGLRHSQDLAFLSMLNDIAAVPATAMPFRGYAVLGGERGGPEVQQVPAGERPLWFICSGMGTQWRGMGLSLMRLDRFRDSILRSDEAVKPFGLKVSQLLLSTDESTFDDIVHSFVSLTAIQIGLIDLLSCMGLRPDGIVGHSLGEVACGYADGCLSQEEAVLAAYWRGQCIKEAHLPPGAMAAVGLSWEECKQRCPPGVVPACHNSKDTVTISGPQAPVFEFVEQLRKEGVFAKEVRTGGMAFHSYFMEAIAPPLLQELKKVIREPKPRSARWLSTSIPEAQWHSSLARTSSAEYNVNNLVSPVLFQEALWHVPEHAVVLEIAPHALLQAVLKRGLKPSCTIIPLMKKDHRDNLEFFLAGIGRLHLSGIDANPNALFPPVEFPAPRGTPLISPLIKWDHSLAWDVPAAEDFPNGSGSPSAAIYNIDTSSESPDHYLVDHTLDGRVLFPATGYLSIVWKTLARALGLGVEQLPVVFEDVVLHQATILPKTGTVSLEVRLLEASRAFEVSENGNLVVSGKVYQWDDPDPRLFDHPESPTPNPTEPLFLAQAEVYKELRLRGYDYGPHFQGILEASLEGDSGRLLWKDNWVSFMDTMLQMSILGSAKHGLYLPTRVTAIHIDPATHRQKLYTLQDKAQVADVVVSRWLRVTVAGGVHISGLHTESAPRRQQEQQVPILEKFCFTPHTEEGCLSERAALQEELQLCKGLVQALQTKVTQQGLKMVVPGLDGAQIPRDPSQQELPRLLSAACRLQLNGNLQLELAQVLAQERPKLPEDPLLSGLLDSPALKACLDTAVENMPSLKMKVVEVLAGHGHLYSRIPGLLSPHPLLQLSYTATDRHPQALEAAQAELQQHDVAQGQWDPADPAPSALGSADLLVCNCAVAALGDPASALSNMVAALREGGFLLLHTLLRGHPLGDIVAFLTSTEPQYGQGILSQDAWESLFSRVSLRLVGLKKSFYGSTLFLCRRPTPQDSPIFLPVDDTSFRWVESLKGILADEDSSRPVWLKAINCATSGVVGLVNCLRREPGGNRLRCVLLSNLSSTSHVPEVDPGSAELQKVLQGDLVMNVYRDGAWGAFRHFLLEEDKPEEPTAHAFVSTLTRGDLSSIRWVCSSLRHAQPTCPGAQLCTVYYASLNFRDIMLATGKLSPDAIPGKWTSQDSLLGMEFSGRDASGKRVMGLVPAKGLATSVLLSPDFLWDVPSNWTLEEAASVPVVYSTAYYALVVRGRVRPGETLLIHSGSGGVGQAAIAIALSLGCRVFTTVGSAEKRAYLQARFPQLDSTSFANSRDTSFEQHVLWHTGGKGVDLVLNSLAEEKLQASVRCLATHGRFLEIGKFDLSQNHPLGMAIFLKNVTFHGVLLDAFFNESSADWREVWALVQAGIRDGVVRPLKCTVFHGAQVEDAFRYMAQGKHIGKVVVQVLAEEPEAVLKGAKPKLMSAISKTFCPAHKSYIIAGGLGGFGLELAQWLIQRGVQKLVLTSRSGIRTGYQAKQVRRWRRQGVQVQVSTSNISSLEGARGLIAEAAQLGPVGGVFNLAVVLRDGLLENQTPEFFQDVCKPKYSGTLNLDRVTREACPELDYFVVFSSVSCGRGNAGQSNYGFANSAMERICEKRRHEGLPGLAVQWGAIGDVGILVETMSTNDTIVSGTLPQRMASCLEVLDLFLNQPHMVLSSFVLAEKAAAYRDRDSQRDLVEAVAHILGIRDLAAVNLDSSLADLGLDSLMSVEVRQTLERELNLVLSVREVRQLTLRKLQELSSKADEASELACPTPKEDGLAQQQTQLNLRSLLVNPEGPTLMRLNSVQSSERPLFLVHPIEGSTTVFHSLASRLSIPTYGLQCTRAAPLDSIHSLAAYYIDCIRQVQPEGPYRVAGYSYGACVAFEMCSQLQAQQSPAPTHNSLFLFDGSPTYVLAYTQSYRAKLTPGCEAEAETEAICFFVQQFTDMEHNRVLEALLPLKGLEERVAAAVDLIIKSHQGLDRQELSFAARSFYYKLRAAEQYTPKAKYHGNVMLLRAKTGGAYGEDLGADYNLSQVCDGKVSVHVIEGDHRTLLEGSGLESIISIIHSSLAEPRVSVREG
T2 sequence (P41143 whole entry): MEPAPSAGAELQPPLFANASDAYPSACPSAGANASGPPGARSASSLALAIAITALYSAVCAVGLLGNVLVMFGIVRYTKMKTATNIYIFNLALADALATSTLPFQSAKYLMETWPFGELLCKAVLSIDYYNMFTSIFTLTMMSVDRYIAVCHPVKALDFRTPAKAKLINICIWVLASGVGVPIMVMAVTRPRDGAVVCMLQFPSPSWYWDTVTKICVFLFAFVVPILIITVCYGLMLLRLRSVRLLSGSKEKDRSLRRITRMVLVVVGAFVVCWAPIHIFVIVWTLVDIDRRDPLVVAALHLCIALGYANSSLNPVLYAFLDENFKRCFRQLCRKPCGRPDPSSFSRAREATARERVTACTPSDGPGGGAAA
Chain of Mu-type opioid receptor (P35372 whole entry): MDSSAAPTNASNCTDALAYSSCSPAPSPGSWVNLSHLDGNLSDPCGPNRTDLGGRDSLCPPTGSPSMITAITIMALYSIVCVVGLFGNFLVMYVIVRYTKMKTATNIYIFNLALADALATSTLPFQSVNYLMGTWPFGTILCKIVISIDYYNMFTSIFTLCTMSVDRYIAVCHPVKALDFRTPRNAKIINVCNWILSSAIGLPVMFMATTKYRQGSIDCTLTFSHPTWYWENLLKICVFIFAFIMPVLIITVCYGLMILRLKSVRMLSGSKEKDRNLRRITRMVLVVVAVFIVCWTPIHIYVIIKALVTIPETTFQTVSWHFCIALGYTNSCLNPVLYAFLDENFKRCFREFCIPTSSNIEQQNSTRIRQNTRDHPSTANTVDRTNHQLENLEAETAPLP

Which EC50 [1] does the source give for `Oc1ccc(NCc2cccc(OCc3ccc(F)cc3)c2)cc1` here?
Its EC50 is > 79.4 µM (not active).

And the EC50 [2]?
The EC50 was > 79.4 µM (not active).

What about the EC50 [3] of the same compound?
Its EC50 is > 79.4 µM (not active).

And the AC50 (Caspase-6)?
The AC50 was 6.29 µM (active).

And the CC50 [4]?
Its CC50 is > 40 µM (active).

And the CC50 (Vero)?
Its CC50 is > 40 µM (active).

What does the source list for `CCC(=O)OCCNc1cc(Sc2nc3ccccc3[nH]2)c2nonc2c1[N+](=O)[O-]`?
AC50 [5]: 27.4 µM (active); EC50 (Mu-type opioid receptor): > 32 µM (inactive); AC50 [6]: 8.68 µM (active); IC50 [7]: > 32 µM (inactive); AC50 [8]: 9.14 µM (active); IC50 (Fatty acid synthase [9]): 0.845 µM (active); IC50 [10]: 19.1 µM; EC50 [11]: 5.01 µM (active); AC50 [12]: 1.09 µM (active); EC50 (Beta-galactosidase): > 31.5 µM (inactive); EC50 [13]: 6.88 µM (active); CC50 [4]: 14.7 µM (active); EC50 [14]: > 32 µM (inactive); CC50 (Vero): 19 µM (active); IC50 [15]: 2.56 µM (active); IC50 (Fatty acid synthase [16]): 2.04 µM (active)

For `O=C(NCc1ccc(F)cc1)C(c1ccccc1)N(CC1CCCO1)C(=O)Cn1nnc2ccccc21` (configuration not stated), which EC50 [17] is on record?
Its EC50 is 1.07 µM (active).

What about the EC50 [18] of the same compound?
Its EC50 is > 150 µM (inactive).

What about the EC50 [19] of the same compound?
Its EC50 is > 180 µM (inactive).

And the EC50 [20]?
Its EC50 is > 150 µM (inactive).

With `O=C1c2ccccc2C(=O)C1c1ccccn1` as the compound, how does the AC50 [21] read?
The AC50 was 9.62 µM (active).

What about the AC50 (HeLa) of the same compound?
Its AC50 is 139 µM (active).

What does the source list for `COc1ccccc1OCC(=O)N/N=C/C=C/c1ccc([N+](=O)[O-])o1`?
IC50 (cells): 2.27 µM (active); CC50 [22]: 23 µM (active); EC50 [17]: 0.654 µM (active); AC50 [8]: 7.39 µM (active); EC50 [18]: > 160 µM (inactive); EC50 [23]: 0.105 µM (active); EC50 [24]: 14.2 µM (active); EC50 [19]: > 180 µM (inactive); EC50 [20]: 51.2 µM (active)
